The values that follow come from US20180298010A1, “PRMT5 INHIBITORS AND USES THEREOF” (Epizyme, Inc., priority 2012, published 2018).

This test has as its target T1, PRMT5/MEP50 (Homo sapiens, UniProt O14744).
T1 construct: Flag-PRMT5; 6His-MEP50
The test is described as follows: PRMT5 Biochemical Assay (PRMT5/MEP50 enzyme assay on peptide substrate, 3H-SAM Flashplate). The gist of the method: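 FLAG-PRMT5/His-MEP50 from Sf9 cells (4 nM) preincubated 30 min at 25 °C with compound in 20 mM Bicine pH 7.6, 1 mM TCEP, 1% DMSO. Reaction started with 75 nM 3H-SAM on 40 nM biotinylated H4 1-15 peptide, stopped with cold SAM. Bound 3H-peptide counted on streptavidin Flashplates, normalised to DMSO and 100 uM SAH controls.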

Structures are written as SMILES.

T1 sequence (O14744 with tags, fused parts or gaps): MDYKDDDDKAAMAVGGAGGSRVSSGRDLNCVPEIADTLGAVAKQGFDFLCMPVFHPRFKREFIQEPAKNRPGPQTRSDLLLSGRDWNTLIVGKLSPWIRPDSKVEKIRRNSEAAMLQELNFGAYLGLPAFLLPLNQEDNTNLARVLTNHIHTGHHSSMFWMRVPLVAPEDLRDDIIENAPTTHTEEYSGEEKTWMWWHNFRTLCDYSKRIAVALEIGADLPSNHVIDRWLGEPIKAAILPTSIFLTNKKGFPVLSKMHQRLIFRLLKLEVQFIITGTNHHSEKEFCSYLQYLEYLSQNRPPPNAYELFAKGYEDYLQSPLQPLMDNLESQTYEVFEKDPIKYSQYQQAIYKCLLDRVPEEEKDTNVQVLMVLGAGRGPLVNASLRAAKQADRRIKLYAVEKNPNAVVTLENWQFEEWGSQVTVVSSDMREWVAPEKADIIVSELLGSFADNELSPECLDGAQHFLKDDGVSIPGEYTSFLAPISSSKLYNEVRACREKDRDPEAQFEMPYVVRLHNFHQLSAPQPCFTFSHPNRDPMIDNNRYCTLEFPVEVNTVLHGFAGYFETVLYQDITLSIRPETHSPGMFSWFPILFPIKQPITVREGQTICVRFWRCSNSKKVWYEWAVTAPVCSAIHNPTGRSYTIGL
T1 sequence (Q9BQA1 with tags, fused parts or gaps partner): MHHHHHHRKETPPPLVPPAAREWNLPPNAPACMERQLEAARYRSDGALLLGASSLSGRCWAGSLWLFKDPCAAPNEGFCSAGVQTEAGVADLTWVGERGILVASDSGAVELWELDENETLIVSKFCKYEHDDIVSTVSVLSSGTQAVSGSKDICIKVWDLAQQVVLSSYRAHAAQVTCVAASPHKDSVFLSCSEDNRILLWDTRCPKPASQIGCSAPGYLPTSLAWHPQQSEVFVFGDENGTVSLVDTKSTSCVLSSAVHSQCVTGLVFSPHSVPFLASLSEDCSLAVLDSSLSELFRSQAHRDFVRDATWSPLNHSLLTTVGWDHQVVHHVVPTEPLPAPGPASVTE

For `OC(COc1cccc(-c2ccc3ncn(C4CCOCC4)c3c2)c1)CN1CCc2ccccc2C1` (stereo not shown) [Compound 103, 1-(3,4-dihydroisoquinolin-2(1H)-yl)-3-(3-(1-(tetrahydro-2H-pyran-4-yl)-1H-benzo[d]imidazol-6-yl)phenoxy)propan-2-ol], the IC50 is 101 to 1000 nM.
Take `COc1ccc(-c2cccc(OCC(O)CN3CCc4ccccc4C3)c2)cc1` (stereo not shown) [Compound 75, 1-(3,4-dihydroisoquinolin-2(1H)-yl)-3-((4′-methoxy-[1,1′-biphenyl]-3-yl)oxy)propan-2-ol]: the concentration for half-maximal inhibition (IC50) lay within 101 to 1000 nM.
The figure for `NC(=O)c1ccc(-c2cccc(OCC(O)CN3CCc4ccccc4C3)c2)cc1` (stereo not shown) [Compound 152] is 101 to 1000 nM; for `CCOC(=O)CC1c2ccccc2CCN1CC(O)COc1cccc(-c2ccc3ncn(C)c3c2)c1` (stereo not shown) [Compound 144] it is 1000 to 10000 nM.
The figure for `Cc1cc(OCC(O)CN2CCc3ccccc3C2)c(C)cc1CN1CCOCC1` (stereo not shown) [Compound 17] is 101 to 1000 nM; for `CCC1c2ccccc2CCN1CC(O)COc1cccc(-c2ccc3ncn(C)c3c2)c1` (stereo not shown) [Compound 179] it is 101 to 1000 nM; for `COc1ncc(-c2cccc(OCC(O)CN3CCc4ccccc4C3)c2)cn1` (stereo not shown) [Compound 153] it is 1000 to 10000 nM.
On to `Cn1cnc2ccc(-c3cccc(OCC(O)CN4CCc5ccccc5C4(C)C)c3)cc21` (stereo not shown) [Compound 211], for which the half-maximal inhibitory concentration (IC50) is 1000 to 10000 nM.
With `COc1cc(Cl)cc(-c2cccc(OCC(O)CN3CCc4ccccc4C3)c2)c1` (stereo not shown) [Compound 110], the IC50 fell in the range of 101 to 1000 nM.
The figure for `CC1Cc2ccccc2CN1CC(O)COc1cccc(-c2ccc3ncn(C)c3c2)c1` (stereo not shown) [Compound 122] is 1000 to 10000 nM.
For the compound `OC(COc1cccc(-c2cccc(C(F)(F)F)c2)c1)CN1CCc2ccccc2C1` (stereo not shown) [Compound 87], the IC50 lay in the range of 1000 to 10000 nM.
Turning to `Cn1cnc2ccc(-c3cc(NCC(O)CN4CCc5ccccc5C4)ncn3)cc21` (stereo not shown) [Compound 207], the IC50 lay within 101 to 1000 nM.
As to `OC(COc1cccc(-c2cccc(Cl)c2)c1)CN1CCc2ccccc2C1` (stereo not shown) [Compound 91], the IC50 lay in the range of 1000 to 10000 nM.
Turning to `OC(COCc1ccc(Cl)cc1Cl)CN1CCc2ccccc2C1` (stereo not shown) [Compound 281], the IC50 lay in the range of 1000 to 10000 nM.
Consider `COC(COc1cccc(CNC2CCCC2)c1)CN1CCc2ccccc2C1` (stereo not shown) [Compound 32], for which the IC50 lay within 1000 to 10000 nM.
On to `CC(=O)N1CCC(Nc2cc(CNCC(O)CN3CCc4ccccc4C3)ncn2)CC1` (stereo not shown) [Compound 312], for which the IC50 was over 10000 nM.
`Cn1cnc2ccc(N3CCCC(OCC(O)CN4CCc5ccccc5C4)C3)cc21` (stereo not shown) [Compound 66]: the IC50 lay within 101 to 1000 nM.
As for `COc1ccc(Cl)c(-c2cccc(OCC(O)CN3CCc4ccccc4C3)c2)c1` (stereo not shown) [Compound 64], the IC50 fell in the range of 1000 to 10000 nM.
Regarding `Cc1ccc(F)c(-c2cccc(OCC(O)CN3CCc4ccccc4C3)c2)c1` (stereo not shown) [Compound 138], the concentration for half-maximal inhibition (IC50) was 101 to 1000 nM.
Then `OC(COc1cccc(-c2ccc(C(F)(F)F)cc2C(F)(F)F)c1)CN1CCc2ccccc2C1` (stereo not shown) [Compound 124], with 101 to 1000 nM; and `Cn1cnc(C(=O)Nc2cccc(OCC(O)CN3CCc4ccccc4C3)c2)c1` (stereo not shown) [Compound 183], with 1000 to 10000 nM; and `OC(COc1cccc(-c2ccc3ncoc3c2)c1)CN1CCc2ccccc2C1` (stereo not shown) [Compound 188], with 101 to 1000 nM.
In the case of `N#Cc1cccc(-c2cccc(OCC(O)CN3CCc4ccccc4C3)c2)c1` (stereo not shown) [Compound 172], the IC50 lay in the range of 101 to 1000 nM.
For the compound `OC(COC1CCN(c2ccccc2)C1)CN1CCc2ccccc2C1` (stereo not shown) [Compound 175], the half-maximal inhibitory concentration (IC50) is 1000 to 10000 nM.
As to `O=C1NCc2ccc(-c3cccc(OCC(O)CN4CCc5ccccc5C4)c3)cc21` (stereo not shown) [Compound 148], the IC50 fell in the range of 101 to 1000 nM.
Turning to `CS(=O)(=O)Nc1ccc(-c2cccc(OCC(O)CN3CCc4ccccc4C3)c2)cc1` (stereo not shown) [Compound 129], the IC50 fell in the range of 101 to 1000 nM.
With `OC(COc1cccc(-c2cccnc2F)c1)CN1CCc2ccccc2C1` (stereo not shown) [Compound 139], the concentration for half-maximal inhibition (IC50) was 101 to 1000 nM.
The figure for `CCCCNCc1cccc(COCC(O)CN2CCc3ccccc3C2)c1` (stereo not shown) [Compound 286] is 101 to 1000 nM; for `COc1c(COCC(O)CN2CCc3ccccc3C2)ccc2ccccc12` (stereo not shown) [Compound 279] it is 1000 to 10000 nM; for `OC(COc1cccc(C2=CCCCC2)c1)CN1CCc2ccccc2C1` (stereo not shown) [Compound 57] it is 1000 to 10000 nM.
The figure for `Cc1ccncc1-c1cccc(OCC(O)CN2CCc3ccccc3C2)c1` (stereo not shown) [Compound 113, 1-(3,4-dihydroisoquinolin-2(1H)-yl)-3-(3-(4-methylpyridin-3-yl)phenoxy)propan-2-ol] is 101 to 1000 nM; for `O=C(Nc1cccc(OCC(O)CN2CCc3ccccc3C2)c1)c1cocn1` (stereo not shown) [Compound 159] it is 1000 to 10000 nM.
As to `Cn1ncc2ccc(-c3cc(COCC(O)CN4CCc5ccccc5C4)on3)cc21` (stereo not shown) [Compound 136], the concentration for half-maximal inhibition (IC50) was 101 to 1000 nM.
On to `O=C(Nc1ccccn1)c1cccc(OCC(O)CN2CCc3ccccc3C2)c1` (stereo not shown) [Compound 267], for which the IC50 lay within 101 to 1000 nM.
`OC(COc1cccc(-c2ccc3cnoc3c2)c1)CN1CCc2ccccc2C1` (stereo not shown) [Compound 166]: the IC50 fell in the range of 1000 to 10000 nM.
Then `CN(CC(O)CN1CCc2ccccc2C1)c1cccc(CNC2CCCC2)c1` (stereo not shown) [Compound 53], with 101 to 1000 nM; and `OC(COc1cccc(-c2ccc(Cl)cc2)c1)CN1CCc2ccccc2C1` (stereo not shown) [Compound 69], with 1000 to 10000 nM.
On to `OC(COCc1ccccn1)CN1CCc2ccccc2C1` (stereo not shown) [Compound 282], for which the concentration for half-maximal inhibition (IC50) was in the range of 10000 to 40000 nM.
Take `OCc1ccc(-c2cccc(OCC(O)CN3CCc4ccccc4C3)c2)cc1` (stereo not shown) [Compound 73]: the IC50 is 1000 to 10000 nM.
As for `COc1ccc(-c2cccc(OCC(O)CN3CCc4ccccc4C3)c2)cc1Cl` (stereo not shown) [Compound 168], the IC50 fell in the range of 101 to 1000 nM.
For the compound `OC(COCC1COc2ccccc2O1)CN1CCc2ccccc2C1` (stereo not shown) [Compound 300], the 50% inhibitory concentration (IC50) fell in the range of 101 to 1000 nM.
On to `CN(C(=O)c1cn(C)cn1)c1cccc(OCC(O)CN2CCc3ccccc3C2)c1` (stereo not shown) [Compound 197], for which the 50% inhibitory concentration (IC50) fell in the range of 1000 to 10000 nM.
With `OC(COCC1CCCO1)CN1CCc2ccccc2C1` (stereo not shown) [Compound 305], the IC50 was in the range of 10000 to 40000 nM.
Regarding `OC(COc1ccc2c(c1)OCO2)CN1CCc2ccccc2C1` (stereo not shown) [Compound 285], the 50% inhibitory concentration (IC50) fell in the range of 1000 to 10000 nM.
As to `Cn1ccc2ccc(-c3cccc(OCC(O)CN4CCc5ccccc5C4)c3)cc21` (stereo not shown) [Compound 147], the IC50 lay within 101 to 1000 nM.
Consider `OC(COc1cccc(-c2ccccc2Cl)c1)CN1CCc2ccccc2C1` (stereo not shown) [Compound 92], for which the IC50 lay in the range of 101 to 1000 nM.
Then `OC(COC1CCCC1)CN1CCc2ccccc2C1` (stereo not shown) [Compound 302], with 1000 to 10000 nM.
For the compound `O=C1COc2ccc(-c3cccc(OCC(O)CN4CCc5ccccc5C4)c3)cc2N1` (stereo not shown) [Compound 156, 6-(3-(3-(3,4-dihydroisoquinolin-2(1H)-yl)-2-hydroxypropoxy)phenyl)-2H-benzo[b][1,4]oxazin-3(4H)-one], the 50% inhibitory concentration (IC50) fell in the range of 101 to 1000 nM.
Take `CN1CCN(C(=O)Cn2cnc3ccc(-c4cccc(OCC(O)CN5CCc6ccccc6C5)c4)cc32)CC1` (stereo not shown) [Compound 270]: the half-inhibitory concentration (IC50) fell in the range of 101 to 1000 nM.
Then `OC(COc1cccc(-c2ccccn2)c1)CN1CCc2ccccc2C1` (stereo not shown) [Compound 98], with 1000 to 10000 nM.
Turning to `OC(COc1cccc(-c2ccncc2)c1)CN1CCc2ccccc2C1` (stereo not shown) [Compound 97], the IC50 lay in the range of 1000 to 10000 nM.
The figure for `OC(COc1cccc(-c2ccc3ncn(-c4ccccc4)c3c2)c1)CN1CCc2ccccc2C1` (stereo not shown) [Compound 104, 1-(3,4-dihydroisoquinolin-2(1H)-yl)-3-(3-(1-phenyl-1H-benzo[d]imidazol-6-yl)phenoxy)propan-2-ol] is 101 to 1000 nM.
